Assay results published in US10548317B2, “Pesticidally active pyrazole derivatives” (SYNGENTA PARTICIPATIONS AG, priority 2015, dated 2020).

Legend:
Assay type in all cases: in vivo
Tetranychus urticae = Tetranychus urticae (two-spotted spider mite) bean leaf disc test; details: foliar, 192 h, application rate of 200 ppm, bean leaf discs, mixed population (mobile stages), 8 days after infestation
Method: Tetranychus urticae (Two-Spotted Spider Mite):
Bean leaf discs on agar in 24-well microtiter plates were sprayed with aqueous test solutions prepared from 10'000 ppm DMSO stock solutions. After drying the leaf discs were infested with a mite population of mixed ages. The samples were assessed for mortality on mixed population (mobile stages) 8 days after infestation.

Diabrotica balteata = Diabrotica balteata (corn root worm) maize sprout test; details: 96 h, application rate of 200 ppm, maize sprouts, L2 larvae, 4 days after infestation, read-out: effect in at least one of the two categories (mortality or growth inhibition)
Method: Diabrotica balteata, (Corn Root Worm)
Maize sprouts, placed on an agar layer in 24-well microtiter plates were treated with aqueous test solutions prepared from 10'000 ppm DMSO stock solutions by spraying. After drying, the plates were infested with L2 larvae (6 to 10 per well). The samples were assessed for mortality and growth inhibition in comparison to untreated samples 4 days after infestation. The following compounds gave an effect of at least 80% in at least one of the two categories (mortality or growth inhibition) at an application rate of 200 ppm: 1, 3, 4, 5, 6, 7, 8, 9, 10, 11, 12, 14, 15, 16, 17, 18, 19, 20, 21, 22, 23, 24, 25, 26, 27, 28, 29, 30, 31, 32, 33, 35, 36, 37, 38, 39, 40, 41, 42, 43, 44, 45, 48, 50, 51, 52, 53, 54 and 55.

Euschistus heros = Euschistus heros (neotropical brown stink bug) soybean leaf test; details: 120 h, application rate of 200 ppm, soybean leaves, N2 nymphs, 5 days after infestation, read-out: effect in at least one of the two categories (mortality or growth inhibition)
Method: Euschistus heros (Neotropical Brown Stink Bug)
Soybean leaves on agar in 24-well microtiter plates were sprayed with aqueous test solutions prepared from 10'000 ppm DMSO stock solutions. After drying the leaves were infested with N2 nymphs. The samples were assessed for mortality and growth inhibition in comparison to untreated samples 5 days after infestation. The following compounds gave an effect of at least 80% in at least one of the two categories (mortality or growth inhibition) at an application rate of 200 ppm: 3, 4, 5, 6, 9, 10, 12, 14, 15, 16, 17, 18, 20, 24, 27, 28, 29, 31, 32, 33, 36, 37, 38, 42, 43, 45, 50, 52, 53, 54 and 55.

Thrips tabaci = Thrips tabaci (onion thrips) sunflower leaf disc test; details: foliar, 144 h, application rate of 200 ppm, sunflower leaf discs, mixed ages, 6 days after infestation
Method: Thrips tabaci (Onion thrips):
Sunflower leaf discs were placed on agar in 24-well microtiter plates and sprayed with aqueous test solutions prepared from 10'000 ppm DMSO stock solutions. After drying the leaf discs were infested with a thrips population of mixed ages. The samples were assessed for mortality 6 days after infestation.

Plutella xylostella = Plutella xylostella (diamond back moth) artificial diet test; details: 120 h, application rate of 200 ppm, L2 larvae, 5 days after infestation, read-out: effect in at least one of the two categories (mortality or growth inhibition)
Method: Plutella xylostella (Diamond Back Moth):
24-well microtiter plates with artificial diet were treated with aqueous test solutions prepared from 10'000 ppm DMSO stock solutions by pipetting. After drying, the plates were infested with L2 larvae (10 to 15 per well). The samples were assessed for mortality and growth inhibition in comparison to untreated samples 5 days after infestation. The following compounds gave an effect of at least 80% in at least one of the two categories (mortality or growth inhibition) at an application rate of 200 ppm: 1, 2, 3, 4, 5, 6, 7, 8, 9, 10, 11, 12, 13, 14, 15, 16, 17, 18, 19, 20, 21, 22, 23, 24, 25, 26, 27, 28, 29, 30, 31, 32, 33, 35, 36, 37, 38, 39, 40, 41, 42, 43, 44, 45, 46, 47, 48, 50, 51, 52, 53, 54 and 55.

Spodoptera littoralis = Spodoptera littoralis (Egyptian cotton leaf worm) leaf disc spray test; details: foliar, 72 h, application rate of 200 ppm, cotton leaf discs, L1 larvae, 3 days after infestation, read-out: control (at least one of mortality, anti-feedant effect, growth inhibition)
Method: Spodoptera littoralis (Egyptian Cotton Leaf Worm)
Cotton leaf discs were placed on agar in 24-well microtiter plates and sprayed with aqueous test solutions prepared from 10'000 ppm DMSO stock solutions. After drying the leaf discs were infested with five L1 larvae. The samples were assessed for mortality, anti-feedant effect, and growth inhibition in comparison to untreated samples 3 days after infestation. Control of Spodoptera littoralis by a test sample is when at least one of mortality, anti-feedant effect, and growth inhibition is higher than the untreated sample.

CCNC(=O)c1cc(-c2cnn(-c3c(C(F)(F)F)c(C(F)(F)C(F)(F)F)nn3C)c2)sc1Cl [Compound 20]
≥ 80%: mortality at 200 ppm (Tetranychus urticae) | percent effect (mortality or growth inhibition) at 200 ppm (Diabrotica balteata) | percent effect (mortality or growth inhibition) at 200 ppm (Euschistus heros) | mortality at 200 ppm (Thrips tabaci) | percent effect (mortality or growth inhibition) at 200 ppm (Plutella xylostella) | control (mortality, anti-feedant effect or growth inhibition) at 200 ppm (Spodoptera littoralis)

Cn1nc(C(F)(F)C(F)(F)F)c(C(F)(F)F)c1-n1cc(-c2cc(C(N)=O)c(Cl)s2)cn1 [Compound 16]
≥ 80%: percent effect (mortality or growth inhibition) at 200 ppm (Diabrotica balteata) | percent effect (mortality or growth inhibition) at 200 ppm (Euschistus heros) | mortality at 200 ppm (Thrips tabaci) | percent effect (mortality or growth inhibition) at 200 ppm (Plutella xylostella) | control (mortality, anti-feedant effect or growth inhibition) at 200 ppm (Spodoptera littoralis)

Cn1nc(C(F)(F)C(F)(F)F)c(OC(F)F)c1-n1cc(-c2cc(C(=O)NC3CC3)c(Cl)s2)cn1 [Compound 37]
≥ 80%: mortality at 200 ppm (Tetranychus urticae) | percent effect (mortality or growth inhibition) at 200 ppm (Diabrotica balteata) | percent effect (mortality or growth inhibition) at 200 ppm (Euschistus heros) | mortality at 200 ppm (Thrips tabaci) | percent effect (mortality or growth inhibition) at 200 ppm (Plutella xylostella) | control (mortality, anti-feedant effect or growth inhibition) at 200 ppm (Spodoptera littoralis)

CC(C)NC(=O)c1cc(-c2cnn(-c3c(C(F)(F)F)c(C(F)(F)C(F)(F)F)nn3C)c2)sc1Cl [Compound 17]
≥ 80%: mortality at 200 ppm (Tetranychus urticae) | percent effect (mortality or growth inhibition) at 200 ppm (Diabrotica balteata) | percent effect (mortality or growth inhibition) at 200 ppm (Euschistus heros) | mortality at 200 ppm (Thrips tabaci) | percent effect (mortality or growth inhibition) at 200 ppm (Plutella xylostella) | control (mortality, anti-feedant effect or growth inhibition) at 200 ppm (Spodoptera littoralis)

Cn1nc(OC(F)(F)C(F)OC(F)(F)F)c(C(F)(F)F)c1-n1cc(-c2cc(C(=O)NC3(C#N)CC3)c(Cl)s2)cn1 (stereo not shown) [Compound 54]
≥ 80%: percent effect (mortality or growth inhibition) at 200 ppm (Diabrotica balteata) | percent effect (mortality or growth inhibition) at 200 ppm (Euschistus heros) | percent effect (mortality or growth inhibition) at 200 ppm (Plutella xylostella) | control (mortality, anti-feedant effect or growth inhibition) at 200 ppm (Spodoptera littoralis)

CCN(C(=O)c1cc(-c2cnn(-c3c(C(F)(F)F)c(C(F)(F)C(F)(F)F)nn3C)c2)sc1Cl)C1(C#N)CC1 [Compound 10]
≥ 80%: mortality at 200 ppm (Tetranychus urticae) | percent effect (mortality or growth inhibition) at 200 ppm (Diabrotica balteata) | percent effect (mortality or growth inhibition) at 200 ppm (Euschistus heros) | mortality at 200 ppm (Thrips tabaci) | percent effect (mortality or growth inhibition) at 200 ppm (Plutella xylostella) | control (mortality, anti-feedant effect or growth inhibition) at 200 ppm (Spodoptera littoralis)

Cn1nc(C(F)(F)C(F)(F)F)c(C(F)(F)F)c1-n1cc(-c2cc(C(=O)NC3(C(N)=O)CC3)c(Cl)s2)cn1 [Compound 5, N-(1-carbamoylcyclopropyl)-2-chloro-5-[1-[2-methyl-5-(1,1,2,2,2-pentafluoroethyl)-4-(trifluoromethyl)pyrazol-3-yl]pyrazol-4-yl]thiophene-3-carboxamide]
≥ 80%: mortality at 200 ppm (Tetranychus urticae) | percent effect (mortality or growth inhibition) at 200 ppm (Diabrotica balteata) | percent effect (mortality or growth inhibition) at 200 ppm (Euschistus heros) | mortality at 200 ppm (Thrips tabaci) | percent effect (mortality or growth inhibition) at 200 ppm (Plutella xylostella) | control (mortality, anti-feedant effect or growth inhibition) at 200 ppm (Spodoptera littoralis)

CN(C(=O)c1cc(-c2cnn(-c3c(C(F)(F)F)c(C(F)(F)C(F)(F)F)nn3C)c2)sc1Cl)C1(C#N)CC1 [Compound 9]
≥ 80%: mortality at 200 ppm (Tetranychus urticae) | percent effect (mortality or growth inhibition) at 200 ppm (Diabrotica balteata) | percent effect (mortality or growth inhibition) at 200 ppm (Euschistus heros) | mortality at 200 ppm (Thrips tabaci) | percent effect (mortality or growth inhibition) at 200 ppm (Plutella xylostella) | control (mortality, anti-feedant effect or growth inhibition) at 200 ppm (Spodoptera littoralis)

Cn1nc(OC(F)(F)C(F)C(F)(F)F)c(C(F)(F)F)c1-n1cc(-c2cc(C(=O)NC3(C#N)CC3)c(Cl)s2)cn1 (stereo not shown) [Compound 52]
≥ 80%: percent effect (mortality or growth inhibition) at 200 ppm (Diabrotica balteata) | percent effect (mortality or growth inhibition) at 200 ppm (Euschistus heros) | percent effect (mortality or growth inhibition) at 200 ppm (Plutella xylostella) | control (mortality, anti-feedant effect or growth inhibition) at 200 ppm (Spodoptera littoralis)

Cn1nc(C(F)(F)C(F)(F)F)c(C(F)(F)F)c1-n1cc(-c2cc(C(=O)NCC(F)(F)F)c(Cl)s2)cn1 [Compound 14]
≥ 80%: percent effect (mortality or growth inhibition) at 200 ppm (Diabrotica balteata) | percent effect (mortality or growth inhibition) at 200 ppm (Euschistus heros) | mortality at 200 ppm (Thrips tabaci) | percent effect (mortality or growth inhibition) at 200 ppm (Plutella xylostella) | control (mortality, anti-feedant effect or growth inhibition) at 200 ppm (Spodoptera littoralis)

C=C(Cl)CNC(=O)c1cc(-c2cnn(-c3c(C(F)(F)F)c(C(F)(F)C(F)(F)F)nn3C)c2)sc1Cl [Compound 31]
≥ 80%: mortality at 200 ppm (Tetranychus urticae) | percent effect (mortality or growth inhibition) at 200 ppm (Diabrotica balteata) | percent effect (mortality or growth inhibition) at 200 ppm (Euschistus heros) | mortality at 200 ppm (Thrips tabaci) | percent effect (mortality or growth inhibition) at 200 ppm (Plutella xylostella) | control (mortality, anti-feedant effect or growth inhibition) at 200 ppm (Spodoptera littoralis)

Cn1nc(C(F)(F)C(F)(F)F)c(C(F)(F)F)c1-n1cc(-c2cc(C(=O)NC3(c4ccccn4)CC3)c(Cl)s2)cn1 [Compound 15]
≥ 80%: mortality at 200 ppm (Tetranychus urticae) | percent effect (mortality or growth inhibition) at 200 ppm (Diabrotica balteata) | percent effect (mortality or growth inhibition) at 200 ppm (Euschistus heros) | percent effect (mortality or growth inhibition) at 200 ppm (Plutella xylostella) | control (mortality, anti-feedant effect or growth inhibition) at 200 ppm (Spodoptera littoralis)

Cn1nc(C(F)(F)C(F)(F)F)c(C(F)(F)F)c1-n1cc(-c2cc(C(=O)NC3CC3F)c(Cl)s2)cn1 (stereo not shown) [Compound 32]
≥ 80%: percent effect (mortality or growth inhibition) at 200 ppm (Diabrotica balteata) | percent effect (mortality or growth inhibition) at 200 ppm (Euschistus heros) | mortality at 200 ppm (Thrips tabaci) | percent effect (mortality or growth inhibition) at 200 ppm (Plutella xylostella) | control (mortality, anti-feedant effect or growth inhibition) at 200 ppm (Spodoptera littoralis)

Cn1nc(C(F)(F)C(F)(F)F)c(C(F)(F)F)c1-n1cc(-c2cc(C(=O)NCC=C(Cl)Cl)c(Cl)s2)cn1 [Compound 28]
≥ 80%: mortality at 200 ppm (Tetranychus urticae) | percent effect (mortality or growth inhibition) at 200 ppm (Diabrotica balteata) | percent effect (mortality or growth inhibition) at 200 ppm (Euschistus heros) | percent effect (mortality or growth inhibition) at 200 ppm (Plutella xylostella) | control (mortality, anti-feedant effect or growth inhibition) at 200 ppm (Spodoptera littoralis)

C=C(F)CNC(=O)c1cc(-c2cnn(-c3c(C(F)(F)F)c(C(F)(F)C(F)(F)F)nn3C)c2)sc1Cl [Compound 24]
≥ 80%: percent effect (mortality or growth inhibition) at 200 ppm (Diabrotica balteata) | percent effect (mortality or growth inhibition) at 200 ppm (Euschistus heros) | mortality at 200 ppm (Thrips tabaci) | percent effect (mortality or growth inhibition) at 200 ppm (Plutella xylostella) | control (mortality, anti-feedant effect or growth inhibition) at 200 ppm (Spodoptera littoralis)

Cn1nc(OC(F)(F)C(F)OC(F)(F)F)c(C(F)(F)F)c1-n1cc(-c2cc(C(=O)NC3CC3)c(Cl)s2)cn1 (stereo not shown) [Compound 55]
≥ 80%: percent effect (mortality or growth inhibition) at 200 ppm (Diabrotica balteata) | percent effect (mortality or growth inhibition) at 200 ppm (Euschistus heros) | percent effect (mortality or growth inhibition) at 200 ppm (Plutella xylostella) | control (mortality, anti-feedant effect or growth inhibition) at 200 ppm (Spodoptera littoralis)

Cn1nc(C(F)(F)C(F)(F)F)c(C(F)(F)F)c1-n1cc(-n2cc(C(=O)NC3CC3)c(C(F)(F)F)c2)cn1 [Compound 45]
≥ 80%: percent effect (mortality or growth inhibition) at 200 ppm (Diabrotica balteata) | percent effect (mortality or growth inhibition) at 200 ppm (Euschistus heros) | mortality at 200 ppm (Thrips tabaci) | percent effect (mortality or growth inhibition) at 200 ppm (Plutella xylostella) | control (mortality, anti-feedant effect or growth inhibition) at 200 ppm (Spodoptera littoralis)

CNC(=O)c1cc(-c2cnn(-c3c(C(F)(F)F)c(C(F)(F)C(F)(F)F)nn3C)c2)sc1Cl [Compound 18]
≥ 80%: percent effect (mortality or growth inhibition) at 200 ppm (Diabrotica balteata) | percent effect (mortality or growth inhibition) at 200 ppm (Euschistus heros) | mortality at 200 ppm (Thrips tabaci) | percent effect (mortality or growth inhibition) at 200 ppm (Plutella xylostella) | control (mortality, anti-feedant effect or growth inhibition) at 200 ppm (Spodoptera littoralis)
